Test results published in patent US20220339179A1, “TREATMENT OF HR DEFICIENT CANCER” (THE FRANCIS CRICK INSTITUTE LIMITED, priority 2019, published 2022).

What was measured:
[1] = system: PARP1 chromatin association in eHAP SMUG1−/− cells; assay: PARP trapping assay (chromatin fractionation), eHAP SMUG1−/− cells; assay type: cell-based, human; conditions: MMS 0.01% then olaparib 10 μM 4 h
Procedure: Briefly, 500.000 cells were seeded onto six-well plates, and treated with 350 nM hmdU or 0.01% MMS for 24 hours at which point cells were either left untreated or treated with 10 μM olaparib for 4 h. Cells were fractionated with the Subcellular Protein Fractionation kit for Cultured Cells (ThermoFisher #78840) according to the manufacturer's instructions. Soluble and chromatin fractions were analysed by immunoblotting for PARP1 (Cell Signaling #9542, rabbit) and yH2AX (Millipore, JBW301) antibodies. Incubation with primary antibody was followed by incubation with a horseradish peroxidase-conjugated secondary antibody and chemiluminescent detection of proteins (Amersham Pharmacia, Cardiff, UK).

eHAP MUS81−/− cells = assay: Cell viability assay (CellTiter-Glo), eHAP MUS81−/− cells; assay type: cell-based, human; conditions: single agent
Procedure: (§1) For analysis of cell viability following exposure to olaparib (Selleckchem), deoxyribonucleosides and DNPH1i (N6-benzyladenosine, Carbosynth), cells were seeded in 96-well plates at a density of 100-500 cells per well. Twenty-four hours post-seeding, drug treatments were initiated, and cells were continuously exposed until termination of the experiment. Cell viability was measured using CellTiter-Glo (Promega). The surviving fractions were measured, and drug sensitivity curves were plotted using GraphPad Prism. The following nucleosides were purchased from commercial sources: dU (2′-deoxyuridine), hdU (5-hydroxy-2′-deoxyuridine), hmdU (5-hydroxymethyl-2′-deoxyuridine), mdC (5-methyl-2′-deoxycytidine), hmdC (5-hydroxymethyl-2′-deoxycytidine), cadC (5-carboxy-2-deoxycytidine), fodC (5-formyl-2-deoxycytidine), dl (2′-deoxyinosine), dX (2′-deoxyxanthosine), 8odG (8-oxo-2′-deoxyguanosine), hmU (5 hydroxymethyluridine), hmC (5-hydroxymethyl-cytidine). fodU (5-formyl-2′-deoxyuridine) was synthesized as previously described (Guo et al Org. Biomol. Chem. 11, 1610-1613 (2013).

[2] = system: SUM149 BRCA1mut/53BP1−/− cells; assay: Cell viability assay, SUM149 BRCA1mut/53BP1−/− cells; assay type: cell-based, human; conditions: PARPi-resistant cells; hmdU 2 μM + olaparib; ratio of EC50 values
[3] = system: eHAP WT and DNPH1 k/o cells; assay: Nucleoside composition of genomic DNA by LC-MS; assay type: cell-based, human; conditions: cells treated with exogenous hmdU; DNPH1 k/o vs WT
Procedure: Cells (5×10^7) were collected and DNA extracted using Gentra Puregene Cell Kit (Qiagen) supplemented with RNAse (Qiagen) and 100 mM tetrahydrouridine (Merck). DNA was digested to mononucleosides by modification of a published protocol (41). Briefly, reactions were carried out in […] buffer containing […] DNA, 50 mM Tris pH 9.0, 20 mM NaCl, 5 mM MgCl2, 1 kU Benzonase, 1 U phosphodiesterase I and 10 U FastAP alkaline phosphatase for 48 hrs at 37° C. The samples were then precipitated with chloroform and labelled standards of deoxyadenosine (dA), deoxycytidine (dC), deoxyguanosine (dG) and deoxythymidine (dT) were spiked for normalization of the signal response from modified deoxynucleosides. Polar phases were analyzed by LC-MS/MS using a using a reverse phase column (100×2.1 mm, 3 μm, Fortis C18, Fortis Technologies) on a Dionex UltiMate LC system coupled to a TSQ Quantiva™ Triple Quadrupole (Thermo Scientific) mass spectrometer with a HESI 11 (heated electrospray ionization) source. The mobile phases consisted of water containing 0.1% acetic acid (mobile phase A) and acetonitrile (mobile phase B). A gradient of 12 min 0-12% B and 1 min 12-60% B was used for the separation of all the modified nucleosides. […]

[4] = system: SUM149 BRCA1mut (parental) cells; assay: Cell viability assay, SUM149 BRCA1mut (parental) cells; assay type: cell-based, human; conditions: 8 days
Procedure: as §1

[5] = system: BRCA2/DNPH1 double knock-out cell lines (DLD1); assay: Cell viability assay, DLD1 BRCA2/DNPH1 double knock-out cells; assay type: cell-based; conditions: absence of a PARP inhibitor; two independent double knock-out lines
Procedure: as §1

DCTD k/o cell lines = assay: Cell viability, DCTD k/o cell lines; assay type: cell-based
Procedure: as §1

[6] = system: DLD1 WT, BRCA2 and DNPH1 single knock-out cell lines; assay: Cell viability assay, DLD1 WT and single knock-out cells; assay type: cell-based; conditions: highest dose tested
Procedure: as §1

DLD1 BRCA2−/− cells = assay: Cell viability assay, DLD1 BRCA2−/− cells; assay type: cell-based; conditions: olaparib 10 nM or hmdU 2 μM, 10 days
Procedure: as §1

[7] = system: SUM149 BRCA1mut/PARP1−/− cells; assay: Cell viability assay, SUM149 BRCA1mut/PARP1−/− cells; assay type: cell-based, human; conditions: PARPi-resistant cells; hmdU 2 μM + olaparib; ratio of EC50 values
[8] = system: SUM149 WT (revertant) cells; assay: Cell viability assay, SUM149 WT (revertant) cells; assay type: cell-based, human; conditions: hmdU with DNPH1i 0.5 μM or olaparib, 8 days
Procedure: as §1

[9] = system: eHAP MUS81−/−DNPH1−/− cells; assay: Cell viability assay (CellTiter-Glo), eHAP MUS81−/−DNPH1−/− cells; assay type: cell-based, human; conditions: nucleoside 200 nM, 6 days, vs MUS81 k/o
Procedure: as §1

COS(C)(=O)=O [MMS, methyl methanesulfonate]
difference in PARP trapping or DNA damage signaling between WT and SMUG1-deficient cells [1]: did not observe any difference

O=c1[nH]c(=O)n([C@H]2C[C@H](O)[C@@H](CO)O2)cc1CO [hmdU, 5-hydroxymethyl-2′-deoxyuridine]
effect on viability, agent alone (eHAP MUS81−/− cells): no effect on viability | expansion of the therapeutic window of olaparib by hmdU [2]: 3 fold | increase in genomic hmdU in DNPH1 k/o cells after hmdU treatment [3]: 3 fold | synthetic lethality of hmdU with DNPH1 inhibition ([4]; DNPH1i 0.5 μM): to the same extent as Olaparib alone | expansion of the therapeutic window of olaparib by addition of hmdU ([4]; hmdU 2 μM + olaparib vs olaparib alone, ratio of EC50 values revertant vs BRCA1mut): 4 fold | effect on viability, agent alone ([4]; olaparib 250 nM or hmdU 2 μM): limited effect on viability | cells killed by hmdU [5]: over 95% | resistance of DCTD k/o cells to nucleoside treatment (DCTD k/o cell lines): not | sensitivity to hmdU [6]: resistant to the highest dose tested | effect on viability, agent alone (DLD1 BRCA2−/− cells): limited effect on viability | expansion of the therapeutic window of olaparib by hmdU [7]: 3 fold | effect of treatment on isogenic WT cells [8]: unaffected | sensitivity of MUS81/DNPH1 k/o cells to nucleoside treatment (cell viability) [9]: hypersensitive
